# Where two headings read alike, the source gives them in different places.
# System: ATF4 translation
# Test: ATF4 Nano Luciferase reporter integrated stress response (ISR) assay in H4 ATF4-NLuc cells
# Assay type: cell-based, human
# Conditions: Homo sapiens, 0.5 h, H4 ATF4-NLuc (clone 17) cells, compound 30 minutes, then sodium arsenite for 6 additional hours, luminescence readout
# Text: Cellular stress leads to activation of the integrated stress response pathway through one of four eukaryotic initiation factor 2a kinases and halts global translation, while allowing for the translation of select transcripts like ATF4 (activating transcription factor 4) that are important for the response to cellular stress. During normal conditions, small open reading frames (ORFs) in the 5′ UTR of ATF4 occupy the ribosome and prevent translation of the coding sequence of ATF4. During stress conditions however, the ribosome scans past these upstream ORFs and preferentially begins translation at the coding sequence of ATF4. In this way, the translation, and thus protein level of ATF4 is a readout of ISR pathway activation. Thus, a fusion of the uORFs and the beginning of the coding sequence of ATF to a common cellular reporter like nano-luciferase allows for a sensitive and high-throughput readout of ISR pathway activity.
# Compounds as provided herein were tested in the following assay. The ATF4 Nano Luciferase reporter was constructed by fusing the human full length 5′ untranslated region (5′-UTR) and a small portion of the coding sequence of the ATF4 gene upstream of the Nano Luciferase (NLuc) coding sequence lacking it's start codon. Specifically, nucleotides +1 through +364 (relative to the transcriptional start site) of ATF4 transcript variant 2 (NCBI NM_182810.2) flanked 5′ by EcoRI and 3′ by BamHI restriction enzyme sites were synthesized and cloned into the EcoRI/BamHI cloning sites of pLVX-EF1a-IRES-Puro lentivirus vector (Clontech). Lentiviral particles were produced with Lenti-X single shots (VSV-G, Clontech) according to the manufacturer's instructions and used to transduce a human H4 neuroglioma cell line (ATCC HTB-148). H4 cells were selected with 1.25 μg/mL Puromycin, and clonal cell lines generated by limiting dilution. We utilized this cell line to generate an integrated stress response (ISR) assay to evaluate the activity of ISR pathway inhibitors via luminescence readout. The H4 ATF4-NLuc (clone 17) cell line is plated at a density of […] in 96-well or 384-well respectively in DMEM+[…]. 24-hours later test compounds diluted in dimethyl sulfoxide (DMSO) are added for 30 minutes at 37° C., followed by ISR pathway activation with […] sodium arsenite aqueous solution for 6 additional hours. Nano Glo luciferase reagent (N1150, Promega) is added according to manufacturer instructions and the luminescence signal (corresponding to the level of ATF4 translation and thus ISR pathway activation) is read with a standard plate reader with luminescence detection capabilities. […] In the tables below, activity of the tested compounds is provided, and in Table 3 as follows: […]; ++=IC50 1-10 μM; +=IC50>10 μM.
# [1] = read-out: Biological Example 1 (ATF4 translation, IC50 nM)
Compound,IC50 (read-out: Activity) [nM],IC50 [1] [nM]
"O=C(N[C@@H]1CC[C@@H](c2nnc(C3CC(OC(F)(F)F)C3)o2)OC1)c1nc2cc(Cl)ccc2s1 (stereo partly drawn) [Example 43, 5-chloro-N-((3R,6S)-6-(5-(3-cis-(trifluoromethoxy)cyclobutyl)-1,3,4-oxadiazol-2-yl)tetrahydro-2H-pyran-3-yl)benzo[d]thiazole-2-carboxamide]",< 1000,
"O=C(N[C@@H]1CC[C@@H](c2nnc(C3CC(OC(F)(F)F)C3)o2)OC1)c1cc2ccc(Cl)cc2cn1 (stereo partly drawn) [Example 44, 7-chloro-N-((3R,6S)-6-(5-(3-cis-(trifluoromethoxy)cyclobutyl)-1,3,4-oxadiazol-2-yl)tetrahydro-2H-pyran-3-yl)isoquinoline-3-carboxamide]",< 1000,
O=C(N[C@@H]1CC[C@@H](c2nnc(C3CC(OC(F)(F)F)C3)o2)OC1)C1CCc2cc(Cl)ccc2O1 (stereo partly drawn) [Example 45],< 1000,
O=C(COc1ccc(Cl)cc1)N[C@@H]1CC[C@@H](C(O)COC2CC(OC(F)(F)F)C2)OC1 (stereo partly drawn) [Example 46],< 1000,
O=C(COC1CC(OC(F)(F)F)C1)NC12CCC(c3cc(-c4ccc(Cl)c(F)c4)no3)(CC1)OC2 (stereo not drawn) [Example 47],< 1000,
O=C(COC1CC(OC(F)(F)F)C1)NC12CCC(c3cnn(-c4ccc(Cl)c(F)c4)c3)(CC1)OC2 (stereo not drawn) [Example 48],< 1000,
O=C(COC1CC(OC(F)(F)F)C1)NC12CCC(C3CC(c4ccc(Cl)c(F)c4)=NO3)(CC1)OC2 (stereo not drawn) [Example 49],> 10000,
O=C(COC1CC(OC(F)(F)F)C1)N[C@@H]1CC[C@@H](c2cc(-c3ccc(Cl)c(F)c3)no2)OC1 (stereo partly drawn) [Example 50],< 1000,38
O=C(N[C@@H]1CC[C@@H](c2nnc(C3CC(OC(F)(F)F)C3)o2)OC1)N1CCC(OC(F)(F)F)C1 (stereo partly drawn) [Example 51],< 1000,
O=C(COC1CC(OC(F)(F)F)C1)N[C@@H]1CC[C@@H](c2ccn(-c3ccc(Cl)cc3)n2)OC1 (stereo partly drawn) [Example 52],< 1000,43
O=C(COc1ccc(F)cc1)N[C@@H]1CC[C@@H](c2noc(C3CC(OC(F)(F)F)C3)n2)OC1 (stereo partly drawn) [Example 53],< 1000,
O=C(COC1CC(OC(F)(F)F)C1)N[C@@H]1CC[C@@H](c2cc(-c3ccc(Cl)cc3)no2)OC1 (stereo partly drawn) [Example 54],< 1000,
O=C(COc1ccc(Cl)c(F)c1)N[C@@H]1CC[C@@H](c2nnc(COC(F)(F)F)o2)OC1 [Example 55],,22.7

# More lines, now with the values ahead:
IC50 (read-out: Activity) [nM],IC50 [1] [nM],Compound
< 1000,,"Cc1ccc(OCC(=O)N[C@@H]2CC[C@@H](c3nnc([C@H]4C[C@@H](OC(F)(F)F)C4)o3)OC2)cc1 [Example 28, 2-(4-methylphenoxy)-N-[(3R,6S)-6-[5-[3-cis-(trifluoromethoxy)cyclobutyl]-1,3,4-oxadiazol-2-yl]tetrahydropyran-3-yl]acetamide]"
< 1000,,"O=C(COc1ccc(Cl)c(F)c1)N[C@@H]1CC[C@@H](c2nnc(COC(F)(F)F)o2)OC1 [Example 30, 2-(4-chloro-3-fluorophenoxy)-N-((3R,6S)-6-(5-((trifluoromethoxy)methyl)-1,3,4-oxadiazol-2-yl)tetrahydro-2H-pyran-3-yl)acetamide]"
< 1000,,"O=C(COc1ccc(Cl)cc1F)N[C@@H]1CC[C@@H](c2nnc([C@H]3C[C@@H](OC(F)(F)F)C3)o2)OC1 [Example 31, 2-(4-chloro-2-fluoro-phenoxy)-N-[(3R,6S)-6-[5-[3-cis-(trifluoromethoxy)cyclobutyl]-1,3,4-oxadiazol-2-yl]tetrahydropyran-3-yl]acetamide]"
< 1000,,"O=C(COc1ccc(F)cc1)N[C@H]1CO[C@H](c2nnc([C@H]3C[C@@H](OC(F)(F)F)C3)o2)C2CC21 (stereo partly drawn) [Example 32, 2-(4-fluorophenoxy)-N-((2S,5R)-2-(5-(3-cis-(trifluoromethoxy)cyclobutyl)-1,3,4-oxadiazol-2-yl)-3-oxabicyclo[4.1.0]heptan-5-yl)acetamide]"
< 1000,421,"COC1C[C@@H](c2nnc([C@H]3C[C@@H](OC(F)(F)F)C3)o2)OC[C@@H]1NC(=O)COc1ccc(F)cc1 (stereo partly drawn) [Example 33, 2-(4-fluorophenoxy)-N-((3S,6S)-4-methoxy-6-(5-(3-cis-(trifluoromethoxy)cyclobutyl)-1,3,4-oxadiazol-2-yl)tetrahydro-2H-pyran-3-yl)acetamide]"
< 1000,,"O=C(COc1ccc(F)cc1F)NC12CCC(c3nnc([C@H]4C[C@@H](OC(F)(F)F)C4)o3)(CC1)OC2 [Example 34, 2-(2,4-difluorophenoxy)-N-[1-[5-[3-cis-(trifluoromethoxy)cyclobutyl]-1,3,4-oxadiazol-2-yl]-2-oxabicyclo[2.2.2]octan-4-yl]acetamide]"
< 1000,,"O=C(COc1ccc(F)cc1)N[C@H]1CO[C@H](c2nnc([C@H]3C[C@@H](OC(F)(F)F)C3)o2)CC1(F)F [Example 35, N-[(3S,6S)-4,4-difluoro-6-[5-[3-cis-(trifluoromethoxy)cyclobutyl]-1,3,4-oxadiazol-2-yl]tetrahydropyran-3-yl]-2-(4-fluorophenoxy)acetamide]"
< 1000,,"CO[C@H]1C[C@@H](NC(=O)COc2ccc(F)cc2)CO[C@@H]1c1nnc([C@H]2C[C@@H](OC(F)(F)F)C2)o1 [Example 36, 2-(4-fluorophenoxy)-N-((3R,5S,6S)-5-methoxy-6-(5-(3-cis-(trifluoromethoxy)cyclobutyl)-1,3,4-oxadiazol-2-yl)tetrahydro-2H-pyran-3-yl)acetamide]"
< 1000,,"O=C(COc1ccc(F)cc1F)N[C@@H]1CC[C@@H](c2nnc([C@H]3C[C@@H](OC(F)(F)F)C3)o2)OC1 [Example 37, 2-(2,4-difluorophenoxy)-N-[(3R,6S)-6-[5-[3-cis-(trifluoromethoxy)cyclobutyl]-1,3,4-oxadiazol-2-yl]tetrahydropyran-3-yl]acetamide]"
< 1000,,O=C(COc1ccc(F)cc1)N[C@@H]1CC[C@@H](c2nc(C3CC(OC(F)(F)F)C3)no2)OC1 (stereo partly drawn) [Example 38]
< 1000,36,"O=C(COc1ccc(C(F)(F)F)nc1)N[C@@H]1CC[C@@H](c2nnc([C@H]3C[C@@H](OC(F)(F)F)C3)o2)OC1 [Example 39, N-[(3R,6S)-6-[5-[3-cis-(trifluoromethoxy)cyclobutyl]-1,3,4-oxadiazol-2-yl]tetrahydropyran-3-yl]-2-[[6-(trifluoromethyl)-3-pyridyl]oxy]acetamide]"
< 1000,2.4,"O=C(COc1ccc(C(F)(F)F)cc1)N[C@@H]1CC[C@@H](c2nnc([C@H]3C[C@@H](OC(F)(F)F)C3)o2)OC1 [Example 40, N-[(3R,6S)-6-[5-[3-cis-(trifluoromethoxy)cyclobutyl]-1,3,4-oxadiazol-2-yl]tetrahydropyran-3-yl]-2-[4-(trifluoromethyl)phenoxy]acetamide]"
< 1000,13.5,"O=C(COc1ccc(Cl)cc1)N[C@H]1CO[C@H](c2nnc([C@H]3C[C@@H](OC(F)(F)F)C3)o2)CC1(F)F [Example 41, N-[(3S,6S)-4,4-difluoro-6-[5-[3-cis-(trifluoromethoxy)cyclobutyl]-1,3,4-oxadiazol-2-yl]tetrahydropyran-3-yl]-2-(4-chlorophenoxy)acetamide]"
< 1000,,"O=C(N[C@@H]1CC[C@@H](c2nnc(C3CC(OC(F)(F)F)C3)o2)OC1)c1cn2ccc(Br)cc2n1 (stereo partly drawn) [Example 42, 7-bromo-N-((3R,6S)-6-(5-(3-cis-(trifluoromethoxy)cyclobutyl)-1,3,4-oxadiazol-2-yl)tetrahydro-2H-pyran-3-yl)imidazo[1,2-a]pyridine-2-carboxamide]"
